Measured values reported in patent US6797721B2, “Phorboxazole derivatives for treating cancer” (Parker Hughes Institute, priority 1999, dated 2004).

Legend:
[1] = system: NALM-6 B-lineage ALL cells; experiment: Clonogenic assay, NALM-6; format: cell-based, human; conditions: 7 days
Method: The growth-inhibiting activity of the synthetic Phorboxazole A and the synthesized derivatives was tested in clonogenic assays. Cancer cells were treated with 1 nM, 10 nM, and 100 nM doses of synthetic Phorboxazole A or derivatives of phorboxazole A. Treated cells included U373 human glioblastoma cells, NALM-6, human B-lineage acute lymphoblastic leukemia cells, and BT-20 human breast cancer cells. The cancer cells were resuspended in clonogenic medium consisting of alpha-MEM supplemented with 0.9% methylcellulose, 30% fetal bovine serum, and 50 μM 2-mercaptoethanol. Cells were plated in duplicate Petri dishes at 100,000 cells/mL/dish and cultured in a humidified 5% CO2 incubator for 7 days. Cancer cell colonies were enumerated on a grid using an inverted phase microscope of high optical resolution. Results were expressed as % inhibition of clonogenic cells at a particular concentration of the test agent using the formula:
% Inhibition=(1−Mean # of colonies [Test]/Mean # of colonies [Control]×100.

[2] = system: PC3 (prostate cancer); experiment: MTT cytotoxicity assay, PC3; format: cell-based; conditions: Homo sapiens
[3] = system: RPMI-18226 (multiple myeloma); experiment: MTT cytotoxicity assay, RPMI-18226; format: cell-based; conditions: Homo sapiens, RPMI18226
[4] = system: U373 glioblastoma cells; experiment: In vitro adhesion assay to ECM proteins, U373; format: cell-based, human; conditions: laminin-, fibronectin-, and collagen-coated plates, 0.1 μM to 1 μM for 24 hours
Method: Human brain tumor cell lines U-373 MG and breast cancer cell lines BT-20 and MDA-MB-231 were obtained from American Type Culture Collection (ATCC, Rockville, Md.) and maintained in liquid culture using DMEM supplemented with 10% fetal bovine serum and antibiotics. Fibroblast conditioned medium was used as a source of chemoattractant in vitro invasion assays. Conditioned medium was prepared as described in the literature (Albini et.al., 1987, Cancer Res., 47:3239-3245).
In vitro adhesion assays were performed to (a) study the baseline adhesive properties of various breast cancer and glioblastoma cell lines and (b) evaluate the effects of phorboxazole A derivatives on the adhesive properties of breast cancer and glioblastoma cells. The plates for the adhesion assays were precoated with the extracellular matrix proteins laminin, fibronectin, or type IV collagen (each at a final concentration of 1 μg/ml in PBS) overnight at 4° C. and dried. On the day of the experiment, the wells were rehydrated and blocked with 10% bovine serum albumin in PBS for 1 hour at room temperature and used for the adhesion assays, as described below.
The effects of synthetic phorboxazole A and specific derivatives on adhesion of breast cancer and glioblastoma cells was studied. Exponentially growing cells in DMEM were incubated with phorboxazole compounds or genistein as a control at concentrations ranging from 0.1 μM to 1 μM for 24 hours in a humidified 5% CO2 atmosphere. DMSO (0.1%) was included as a vehicle control. After treatment, cells were detached from the flasks with 0.05% trypsin (Life Technologies) resuspended in DMEM, incubated at 37° C. for 2 hours to allow them to recover from the trypsinization stress and examined for their ability to adhere to plates precoated with ECM proteins.
In adhesion assays, cells were centrifuged, washed twice with serum-free DMEM, counted and resuspended in serum-free DMEM to a final concentration of 2.5×10^5 cells/ml. […] The adherent fraction was quantitated using MTT (3-[4,5-dimethylthiazol-2-yl]-2,5-diphenyltetrazolium bromide) assays. […] The absorbance of each well was measured in a microplate reader (Labsystems) at 540 nm and a reference wavelength of 690 nm.
To translate the OD540 values into the number of cells in each well, the OD540 values were compared to those on standard OD540-versus-cell number curves generated for each cell line. The adherent fractions of cells treated with phorboxazole A derivatives were compared to those of DMSO-treated control cells and the percent inhibition of adhesion was determined using the formula: [formula]
Each treatment condition was evaluated in duplicate in 3 independent experiments. The IC50 values were calculated by non-linear regression analysis. […]

[5] = system: DU-145 (prostate cancer); experiment: MTT cytotoxicity assay, DU-145; format: cell-based; conditions: Homo sapiens
Method: (§1) The cytotoxicity assay of synthetic Phorboxazole A and various derivative compounds against human tumor cells was performed using the MTT (3-[4,5-dimethylthiazol-2-yl]-2,5-diphenyl tetrazolium bromide) assay (Boehringer Mannheim Corp., Indianapolis, Ind.). Briefly, exponentially growing brain tumor cells were seeded into a 96-well plate at a density of 2.5×10^4 cells/well and incubated for 36 hours at 37° C. prior to drug exposure. On the day of treatment, culture medium was carefully aspirated from the wells and replaced with fresh medium containing the various phorboxazole A derivative compounds as well as the tyrosine kinase inhibitory isoflavone genistein (GEN) at concentrations ranging from 0.1 to 250 μM. Triplicate wells were used for each treatment.
(§2) The cells were incubated with the various compounds for 24-36 hours at 37° C. in a humidified 5% CO2 atmosphere. To each well, 10 μl of MTT (0.5 mg/ml final concentration) was added and the plates were incubated at 37° C. for 4 hours to allow MTT to form formazan crystals by reacting with metabolically active cells. […] The absorbance of each well was measured in a microplate reader (Labsystems) at 540 nm and a reference wavelength of 690 nm. […] The percent survival was calculated using the formula: [formula]
(§3) The IC50 values were calculated by non-linear regression analysis. […]

[6] = system: U266BL (multiple myeloma); experiment: MTT cytotoxicity assay, U266BL; format: cell-based; conditions: Homo sapiens
Method: as §1, §2, §3

With `C=C1C[C@@H]2C[C@@H]3C[C@@H](O)C[C@@H](O3)c3coc(n3)/C=C/C[C@H]3O[C@@H](/C(C)=C/c4coc(C[C@]5(O)C[C@H](OC)C[C@H]([C@H](O)/C=C(C)/C=C/[C@@H](C/C=C/Br)OC)O5)n4)[C@H](C)[C@@H](OC(=O)/C=C\C[C@@H](C1)O2)[C@H]3C` [Compound 1, Phorboxazole A] the “Mean Number Colonies/10^4 cells” value ([1]; 1 nM) was 270, the “Mean Number Colonies/10^4 cells” value ([1]; 10 nM) was 0 and the “Mean Number Colonies/10^4 cells” value ([1]; 100 nM) was 0. The inhibition at 0.001 µM ([1]; Homo sapiens, 168 h, 1 nM, read-out: Inhibition of clonogenic growth) was 86.8%, the inhibition at 0.01 µM ([1]; Homo sapiens, 168 h, 10 nM, read-out: Inhibition of clonogenic growth) was over 99.9% and the inhibition at 0.1 µM ([1]; Homo sapiens, 168 h, 100 nM, read-out: Inhibition of clonogenic growth) was over 99.9%. For the same compound, the IC50 [2] was 14.2 nM, the IC50 [3] was 55.9 nM and the “Inhibition of cell adhesion” value [4] was “active”. It also gave an IC50 [5] of 15 nM and an IC50 [6] of 14.9 nM.
